The source of these data is patent publication US20240109917A1 (ACTELION PHARMACEUTICALS LTD, priority 2020, published 2024).

Read-outs that look alike come from different tables or passages of the source.

One may read the IC50 as the midpoint of a concentration-inhibition curve.

For test [1], the target named is Tb-labeled inactive PDGFRβ (Homo sapiens (Human), UniProt P09619). Description: PDGFRβ LanthaScreen Assay. The format is binding. As to conditions: read-out: PDGFR Lantha IC50. (In general: Time-resolved FRET reads energy transfer from a long-lived donor to a nearby acceptor.)
In test [2] the target is PDGFRβ (Rattus norvegicus (Rat), UniProt Q05030). Description: PDGFRβ Cellular Assay (PDGFRb P-Y751 HTRF in A10 cells stimulated with PDGF-BB). In kind it is cell-based. A digest of the protocol:
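Phospho-Y751 PDGFRβ was measured by HTRF in lysates of A10 rat cells. Cells received compound for 3 hours before PDGF-BB stimulation (100 ng/mL working stock).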

Chain of PDGFRβ (Q05030 32-1097): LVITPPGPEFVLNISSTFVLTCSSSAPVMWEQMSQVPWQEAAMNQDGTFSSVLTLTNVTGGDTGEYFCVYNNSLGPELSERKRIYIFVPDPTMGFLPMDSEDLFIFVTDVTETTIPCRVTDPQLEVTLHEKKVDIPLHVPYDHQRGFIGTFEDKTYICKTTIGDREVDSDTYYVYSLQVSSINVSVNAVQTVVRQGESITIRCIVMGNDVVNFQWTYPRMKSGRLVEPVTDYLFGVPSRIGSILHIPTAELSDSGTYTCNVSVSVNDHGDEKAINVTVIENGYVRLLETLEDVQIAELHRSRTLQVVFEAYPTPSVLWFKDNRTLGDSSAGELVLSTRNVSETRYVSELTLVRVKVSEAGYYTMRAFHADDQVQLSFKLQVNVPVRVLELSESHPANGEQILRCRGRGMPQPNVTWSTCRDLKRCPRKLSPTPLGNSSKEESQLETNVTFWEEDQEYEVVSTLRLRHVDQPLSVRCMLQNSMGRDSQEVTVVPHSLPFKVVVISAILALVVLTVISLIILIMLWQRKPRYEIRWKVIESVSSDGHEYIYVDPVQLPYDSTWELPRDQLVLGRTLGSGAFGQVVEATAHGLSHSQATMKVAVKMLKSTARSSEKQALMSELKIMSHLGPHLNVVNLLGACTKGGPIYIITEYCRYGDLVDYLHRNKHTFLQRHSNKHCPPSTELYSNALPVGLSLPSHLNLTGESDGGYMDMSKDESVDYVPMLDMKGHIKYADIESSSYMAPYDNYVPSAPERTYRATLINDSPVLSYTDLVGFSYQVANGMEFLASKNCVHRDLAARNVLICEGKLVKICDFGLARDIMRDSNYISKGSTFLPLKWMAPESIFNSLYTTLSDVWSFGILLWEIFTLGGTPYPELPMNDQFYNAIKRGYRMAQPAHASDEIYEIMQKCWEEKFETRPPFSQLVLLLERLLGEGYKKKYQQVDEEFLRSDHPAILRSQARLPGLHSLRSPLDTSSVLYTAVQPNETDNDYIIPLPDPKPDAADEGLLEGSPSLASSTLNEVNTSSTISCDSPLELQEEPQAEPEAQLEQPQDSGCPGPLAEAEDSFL
Chain of Tb-labeled inactive PDGFRβ (P09619 33-1106): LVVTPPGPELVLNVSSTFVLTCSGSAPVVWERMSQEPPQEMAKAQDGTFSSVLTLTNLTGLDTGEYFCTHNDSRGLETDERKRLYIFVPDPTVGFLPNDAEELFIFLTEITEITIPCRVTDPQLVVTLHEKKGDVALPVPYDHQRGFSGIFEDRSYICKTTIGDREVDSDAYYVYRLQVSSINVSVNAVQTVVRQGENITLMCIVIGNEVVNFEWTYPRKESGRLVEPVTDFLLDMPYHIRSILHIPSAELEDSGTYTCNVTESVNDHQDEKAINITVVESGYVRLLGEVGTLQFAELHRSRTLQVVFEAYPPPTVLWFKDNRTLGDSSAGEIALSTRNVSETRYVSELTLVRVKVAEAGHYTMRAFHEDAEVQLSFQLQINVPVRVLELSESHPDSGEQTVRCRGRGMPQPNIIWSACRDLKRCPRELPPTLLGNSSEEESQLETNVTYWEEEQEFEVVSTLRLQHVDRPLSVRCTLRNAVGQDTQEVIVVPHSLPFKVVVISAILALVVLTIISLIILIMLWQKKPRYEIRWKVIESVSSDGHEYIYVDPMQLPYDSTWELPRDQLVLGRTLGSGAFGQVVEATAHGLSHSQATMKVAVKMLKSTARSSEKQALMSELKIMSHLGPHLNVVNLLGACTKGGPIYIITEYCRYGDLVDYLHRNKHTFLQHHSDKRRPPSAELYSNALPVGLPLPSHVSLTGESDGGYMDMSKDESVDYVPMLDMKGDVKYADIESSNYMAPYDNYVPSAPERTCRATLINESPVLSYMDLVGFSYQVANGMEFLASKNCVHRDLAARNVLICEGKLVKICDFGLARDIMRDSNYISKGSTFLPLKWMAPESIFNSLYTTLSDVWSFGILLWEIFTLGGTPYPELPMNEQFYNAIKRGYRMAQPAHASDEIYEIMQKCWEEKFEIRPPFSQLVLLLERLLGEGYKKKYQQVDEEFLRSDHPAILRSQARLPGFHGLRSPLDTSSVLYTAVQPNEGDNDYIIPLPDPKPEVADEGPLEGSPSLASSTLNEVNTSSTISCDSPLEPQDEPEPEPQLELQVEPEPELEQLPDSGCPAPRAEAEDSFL

Regarding `Cc1ncc(NC(=O)C2CN(C(C)C)C2)cc1NC(=O)c1cnn2cc(-c3cnn4c3OCCC4)sc12` [Example 348, 2-(6,7-dihydro-5H-pyrazolo[5,1-b][1,3]oxazin-3-yl)-N-(5-(1-isopropylazetidine-3-carboxamido)-2-methylpyridin-3-yl)pyrazolo[5,1-b]thiazole-7-carboxamide], the values for the IC50 in test [1] and in test [2] (read-out: PDGFR Cellular IC50) were 4 nM and 195 nM, respectively.
In the same order, the values of `Cc1ncc(NC(=O)CN2CCC3(CCC3)C2)cc1NC(=O)c1cnn2cc(-c3cnn(CCO)c3)sc12` [Example 30, N-(5-(2-(6-azaspiro[3.4]octan-6-yl)acetamido)-2-methylpyridin-3-yl)-2-(1-(2-hydroxyethyl)-1H-pyrazol-4-yl)pyrazolo[5,1-b]thiazole-7-carboxamide] are 3.3 nM and 16.5 nM.
The like results for `COc1ccc(-c2cn3ncc(C(=O)Nc4cc(NC(=O)CN5CC(C)(C)C5)cnc4C)c3s2)cn1` [Example 395, N-(5-(2-(3,3-dimethylazetidin-1-yl)acetamido)-2-methylpyridin-3-yl)-2-(6-methoxypyridin-3-yl)pyrazolo[5,1-b]thiazole-7-carboxamide] were, in that order, 7.3 nM and 6.2 nM.
The like results for `Cc1ncc(C(=O)NCCN2CCCC2(C)C)cc1NC(=O)c1cnn2cc(-c3cnn(Cc4cc(OCc5ccccc5)no4)c3)sc12` [Example 362, 2-(1-((3-(benzyloxy)isoxazol-5-yl)methyl)-1H-pyrazol-4-yl)-N-(5-((2-(2,2-dimethylpyrrolidin-1-yl)ethyl)carbamoyl)-2-methylpyridin-3-yl)pyrazolo[5,1-b]thiazole-7-carboxamide] were, in that order, 4.5 nM and 62.3 nM.
Consider `CCn1nccc1-c1cn2ncc(C(=O)Nc3cc(NC(=O)CN4CC(C)(C)C4)cnc3C)c2s1` [Example 388, N-(5-(2-(3,3-dimethylazetidin-1-yl)acetamido)-2-methylpyridin-3-yl)-2-(1-ethyl-1H-pyrazol-5-yl)pyrazolo[5,1-b]thiazole-7-carboxamide], for which the IC50 in test [1] turned out to be 7.4 nM; in test [2] (read-out: PDGFR Cellular IC50) it was 5.1 nM.
Regarding `COCCn1cc(-c2cn3ncc(C(=O)Nc4cc(NC(=O)CN5CCCCCC5)cnc4C)c3s2)cn1` [Example 339, N-(5-(2-(azepan-1-yl)acetamido)-2-methylpyridin-3-yl)-2-(1-(2-methoxyethyl)-1H-pyrazol-4-yl)pyrazolo[5,1-b]thiazole-7-carboxamide], the IC50 turned out to be 3 nM in test [1] and 2.6 nM in test [2] (read-out: PDGFR Cellular IC50).
In the same order, the values of `Cc1ncc(NC(=O)CN2C[C@H](C)O[C@@H](C)C2)cc1NC(=O)c1cnn2cc(-c3c[nH]nc3C)sc12` (relative stereo) [Example 371, N-(5-(2-(trans-2,6-dimethylmorpholino)acetamido)-2-methylpyridin-3-yl)-2-(3-methyl-1H-pyrazol-4-yl)pyrazolo[5,1-b]thiazole-7-carboxamide] are 3 nM and 29.3 nM.
In the same order, the values of `Cc1ncc(NC(=O)CN2CC(C)(C)C2)cc1NC(=O)c1cnn2cc(-c3cccnc3C)sc12` [Example 390, N-(5-(2-(3,3-dimethylazetidin-1-yl)acetamido)-2-methylpyridin-3-yl)-2-(2-methylpyridin-3-yl)pyrazolo[5,1-b]thiazole-7-carboxamide] are 10.1 nM and 5.5 nM.
The like results for `Cc1ncc(NC(=O)[C@H]2CCCN2C(C)C)cc1NC(=O)c1cnn2cc(-c3cnn4c3OCCC4)sc12` [Example 347, (R)-2-(6,7-dihydro-5H-pyrazolo[5,1-b][1,3]oxazin-3-yl)-N-(5-(1-isopropylpyrrolidine-2-carboxamido)-2-methylpyridin-3-yl)pyrazolo[5,1-b]thiazole-7-carboxamide] were, in that order, 6 nM and 6 nM.
For the molecule `Cc1ncc(NC(=O)CN2C[C@H](C)O[C@@H](C)C2)cc1NC(=O)c1cnn2cc(-c3cc[nH]c3)sc12` [Example 365, N-(5-(2-(2,6-trans-dimethylmorpholino)acetamido)-2-methylpyridin-3-yl)-2-(1H-pyrrol-3-yl)pyrazolo[5,1-b]thiazole-7-carboxamide], the IC50 in test [1] is 2.4 nM; in test [2] (read-out: PDGFR Cellular IC50), 4.8 nM.
In the same order, the values of `COCCn1cc(-c2cn3ncc(C(=O)Nc4cc(NC(=O)C5CCN(C(C)C)C5)cnc4C)c3s2)cn1` (centres unmarked) [Example 345, N-(5-(1-isopropylpyrrolidine-3-carboxamido)-2-methylpyridin-3-yl)-2-(1-(2-methoxyethyl)-1H-pyrazol-4-yl)pyrazolo[5,1-b]thiazole-7-carboxamide] are 56.9 nM and 222 nM.
In the same order, the values of `COCCn1cc(-c2cn3ncc(C(=O)Nc4cc(NC(=O)C5CN(C(C)C)C5)cnc4C)c3s2)cn1` [Example 342, N-(5-(1-isopropylazetidine-3-carboxamido)-2-methylpyridin-3-yl)-2-(1-(2-methoxyethyl)-1H-pyrazol-4-yl)pyrazolo[5,1-b]thiazole-7-carboxamide] are 15.9 nM and 339 nM.
In the same order, the values of `Cc1ncc(NC(=O)CN2CC(C)C2)cc1NC(=O)c1cnn2cc(-c3cnn4c3OCCC4)sc12` [Example 407, 2-(6,7-dihydro-5H-pyrazolo[5,1-b][1,3]oxazin-3-yl)-N-(2-methyl-5-(2-(3-methylazetidin-1-yl)acetamido)pyridin-3-yl)pyrazolo[5,1-b]thiazole-7-carboxamide] are 6.2 nM and 11.9 nM.
As to `COC/C=C/c1cn2ncc(C(=O)Nc3cc(C(=O)NCCN4CCCC4(C)C)cnc3C)c2s1` [Example 361, (E)-N-(5-((2-(2,2-dimethylpyrrolidin-1-yl)ethyl)carbamoyl)-2-methylpyridin-3-yl)-2-(3-methoxyprop-1-en-1-yl)pyrazolo[5,1-b]thiazole-7-carboxamide], the IC50 turned out to be 19 nM in test [1] and 14.9 nM in test [2] (PDGFR Cellular IC50).
In the case of `Cc1ncc(NC(=O)[C@@H]2CCCN2C(C)C)cc1NC(=O)c1cnn2cc(-c3cnn4c3OCCC4)sc12` [Example 346, (S)-2-(6,7-dihydro-5H-pyrazolo[5,1-b][1,3]oxazin-3-yl)-N-(5-(1-isopropylpyrrolidine-2-carboxamido)-2-methylpyridin-3-yl)pyrazolo[5,1-b]thiazole-7-carboxamide], the values for the IC50 in test [1] and in test [2] (read-out: PDGFR Cellular IC50) were 6.5 nM and 6.8 nM, respectively.
In the same order, the values of `COc1ncccc1-c1cn2ncc(C(=O)Nc3cc(NC(=O)CN4CC(C)C4)cnc3C)c2s1` [Example 405, 2-(2-methoxypyridin-3-yl)-N-(2-methyl-5-(2-(3-methylazetidin-1-yl)acetamido)pyridin-3-yl)pyrazolo[5,1-b]thiazole-7-carboxamide] are 3.9 nM and 3.8 nM.
